Literature values in patent US6184217A (Cephalon, Inc., priority 1997, dated 2001).

Columns and labels:
[1] = test system: protein kinase C (PKC); conditions: cited from earlier work
[2] = test system: smooth muscle contraction; conditions: cited from earlier work
[3] = test system: elongation of neurazone; conditions: cited from earlier work
[4] = test system: histamine release; conditions: cited from earlier work
[5] = test system: smooth muscle MLCK; conditions: cited from earlier work
[6] = test system: inflammation; conditions: cited from earlier work
[7] = test system: IL-2 production; conditions: cited from earlier work
[8] = test system: lethality resulting from endotoxin administration; conditions: in vivo; cited from earlier work

COC(=O)C1(O)CC2OC1(C)n1c3ccccc3c3c4c(c5c6ccccc6n2c5c31)C(=O)NC4 (centres unmarked) [Compound K-252a]
inhibition of protein kinase C [1]: strongly inhibits protein kinase C (PKC) | inhibiting smooth muscle contraction [2]: inhibiting smooth muscle contraction | inhibiting elongation of neurazone [3]: inhibiting elongation of neurazone | inhibiting histamine release [4]: inhibiting histamine release | inhibiting smooth muscle MLCK [5]: inhibiting smooth muscle MLCK | anti-inflammatory action [6]: anti-inflammatory action | inhibiting IL-2 production [7]: inhibiting IL-2 production | lethality resulting from endotoxin administration [8]: reduces the lethality resulting from endotoxin administration
